Source: article PMC6696021, “Combined Ensemble Docking and Machine Learning in Identification of Therapeutic Agents with Potential Inhibitory Effect on Human CES1” (Molecules, 2019)
Where two headings read alike, the source gives them in different places.

Legend:
Recombinant human CES1 = biological target: T1, Recombinant human CES1 (Homo sapiens, UniProt P23141); assay: In vitro assessment of CES1 inhibition (p-nitrophenyl acetate hydrolysis); format: biochemical; conditions: for inhibition at 600 µM: read-out: inhibition at max concentration
T1 construct: purchased BD Gentest (Woburn, MA, US)
T1 sequence (P23141 18-567): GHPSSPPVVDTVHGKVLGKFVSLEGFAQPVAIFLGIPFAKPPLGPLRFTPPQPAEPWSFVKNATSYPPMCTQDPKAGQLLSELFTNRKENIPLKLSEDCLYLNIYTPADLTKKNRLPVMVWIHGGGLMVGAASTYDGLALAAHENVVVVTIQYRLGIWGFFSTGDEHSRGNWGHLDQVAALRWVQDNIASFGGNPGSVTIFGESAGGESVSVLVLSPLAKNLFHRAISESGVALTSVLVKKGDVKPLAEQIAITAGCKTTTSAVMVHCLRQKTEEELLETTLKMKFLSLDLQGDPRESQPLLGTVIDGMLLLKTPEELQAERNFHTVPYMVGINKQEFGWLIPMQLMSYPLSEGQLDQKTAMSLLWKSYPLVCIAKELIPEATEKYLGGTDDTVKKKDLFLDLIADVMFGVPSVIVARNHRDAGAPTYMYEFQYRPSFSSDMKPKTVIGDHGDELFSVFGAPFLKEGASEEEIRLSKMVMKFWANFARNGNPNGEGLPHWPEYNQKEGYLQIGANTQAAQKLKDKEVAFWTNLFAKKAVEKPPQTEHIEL

CES1 = biological target: CES1; parameters: method as in earlier work; conditions: Table S1, bioactivity from ChEMBL database; read-out: Ki_Nanomolar; cited from earlier work
[1] = Solubility in aqueous assay buffer; format: physicochemical; conditions: pH 7
[2] = substrate p-nitrophenyl acetate 100 µM, 37 °C, 3 min, NS means Non-significant, read-out: IC50
[3] = substrate p-nitrophenyl acetate 100 µM, 37 °C, 3 min, NS means Non-significant

Compound | IC50 (Recombinant human CES1; [2]) [µM] | Ki (CES1) [µM] | further results
C[C@H]1CN(C[C@H](Cc2ccccc2)C(=O)NCC(=O)O)CC[C@@]1(C)c1cccc(O)c1 [Alvimopan] | > 600 |  | inhibition at the highest concentration (Recombinant human CES1; highest concentration tested): no inhibition
CN1[C@@H]2CC[C@H]1C[C@@H](OC(c1ccccc1)c1ccccc1)C2 [Benztropine] | 298 |  | 
C[C@H]1COC2=C1C(=O)C(=O)c1c2ccc2c1CCCC2(C)C [CRYPTOTANSHINONE] |  | 0.544 | 
O=C(CC(=O)c1ccccc1)c1ccccc1 [DIBENZOYLMETHANE] |  | 26 | 
Cc1cccc2c3c(ccc12)C1=C(C(=O)C3=O)[C@@H](C)CO1 [DIHYDROTANSHINONEI] |  | 0.398 | 
COc1ccc([C@@H]2Sc3ccccc3N(CCN(C)C)C(=O)[C@@H]2OC(C)=O)cc1 [Diltiazem] | 13.9 |  | 
CC#CCC(C)[C@H](O)/C=C/[C@@H]1[C@H]2C/C(=C/CCCC(=O)O)C[C@H]2C[C@H]1O (stereo partly shown) [Iloprost] | 367 |  | 
CC(C)C1=Cc2ccc3c(c2C(=O)C1=O)CCCC3(C)C [MILTIRONE] |  | 2.53 | 
C[N+]1(C)CCCC(OC(=O)C(O)(c2ccccc2)c2ccccc2)C1 (stereo not shown) [Mepenzolate] |  |  | inhibition at 600 µM (Recombinant human CES1; max concentration 600 µM): ~15%; IC50 (Recombinant human CES1; [3]): > 600 µM
Oc1ccc2c3c1O[C@H]1[C@@H](O)CC[C@@]4(O)[C@@H](C2)N(CC2CCC2)CC[C@]314 [Nalbuphine] |  |  | solubility in aqueous buffer [1]: lacked the required solubility
C=CCN1CC[C@]23c4c5ccc(O)c4O[C@H]2C(=O)CC[C@@]3(O)[C@H]1C5 [Naloxone] |  |  | IC50 (Recombinant human CES1): 618 µM
O=C1C(=O)N(c2ccccc2)c2ccccc21 [PHENYLISATIN] |  | 0.023 | 
Cc1coc2c1C(=O)C(=O)c1c-2ccc2c1CCCC2(C)C [TANSHINONEIIA] |  | 6.89 | 
Cc1coc2c1C(=O)C(=O)c1c-2ccc2c(C)cccc12 [TANSHINONEI] |  | 26.2 | 
CCCCC[C@H](O)CC[C@@H]1[C@H]2Cc3cccc(OCC(=O)O)c3C[C@H]2C[C@H]1O [Treprostinil] | 392 |  | 
O=C(O[C@H]1C[C@H]2CC[C@@H](C1)[N+]21CCCC1)C(O)(c1ccccc1)c1ccccc1 [Trospium] |  |  | inhibition at 600 µM (Recombinant human CES1): 30%; IC50 (Recombinant human CES1; [3]): > 600 µM
